From patent publication US6348317B1, “Fluorescent and DNA cleavage properties of peptide/dye conjugates” (The Arizona Board of Regents, priority 1999, dated 2002)

Tests used:
[1] = tested on: 5′-32P-end-labeled GRE2 duplex DNA; test: Radical hydroxyl footprinting; format: binding; conditions: 60 minutes in the dark at 25° C., 60 seconds reaction
Experimental: The protocol for radical hydroxyl footprinting reactions was adapted from previously established methods, A. Revzin, Ed., Separation, Detection and Characterization of Biological Macromolecules (1993); P. E. Nielsen, J. Molec. Recog. 3:1-25 (1990). Reaction samples comprised of the TO-ZF and 5′^-32P-end-labeled GRE2 in 20 mM Tris (pH 7.9), 40 mM NaCl, 20 mM KCl, 1 mM MgCl2 were allowed to equilibrate in the dark at room temperature for 60 minutes. Equal volumes of a freshly prepared solution of 0.2 mM [Fe(EDTA)]^2− was mixed with a 0.3% H2O2 solution and a 10 mM sodium ascorbate solution and added to the reaction sample. After a one minute incubation, the reactions were quenched with an aqueous solution of 20 mM thiourea and 10 mg/ml tRNA. The footprinting reactions were analyzed on a 15% denaturing polyacrylamide gel.
Footprinting of TO-ZF Conjugate. DNA footprinting by the TO-ZF conjugate was performed to determine if the TO-ZF conjugate was binding the same sequence as the native glucocorticoid receptor protein DNA-binding domain. More specifically, reaction samples (Maxam-Gilbert A+G and C+T sequencing reactions, radical hydroxyl cleavage of GRE2 in the presence of TO-ZF, radical hydroxyl cleavage of GRE2 in the absence of TO-ZF) contained […] duplex DNA and […] TO-ZF, 20 mM Tris (pH 7.9), 40 mM NaCl, 20 mM KCl, 1 mM MgCl2. […]

GRE2 dsDNA = test: Photocleavage at 514 nm, intensity dependence of guanine oxidation; format: biochemical; conditions: 160 nM duplex DNA, 200 nM TO-ZF, piperidine
Experimental: The purified DNA strands shown in FIG. 2 were 5′^-32P-end-labeled using T4 polynucleotide kinase and purified as described above. Oxygen removal was performed by bubbling argon through the samples. Irradiations were performed on […] samples in a 1.0 mL glass cuvette fit with a septum using an argon-ion laser at 514 nm with a power of 300 mW/cm^2. After irradiation, samples were divided in half and one portion treated with piperidine, the other immediately frozen. Piperidine treatment consisted of adding an equal volume of freshly prepared 20% piperidine in water to the sample followed by heating at 90° C. for 30 minutes. Both the treated and untreated fractions were dried under vacuum. To each dried sample was added […] of 80% formamide in water. The products of the photocleavage experiments were analyzed on a 15% polyacrylamide (19:1) vertical sequencing gel with dimensions 21 cm×40 cm×0.4 mm. […] Gels were dried and exposed to a phosphorimaging screen for 4 hours and analyzed on a Molecular Dynamics Storm-840 gel scanner in phosphorimaging mode.
Photocleavage of TO-ZF conjugate. […] After irradiation of TO-ZF bound to dsDNA in Tris buffer solution at 514 nm (514 nm is in the main band of the absorbance spectrum of intercalated thiazole orange as shown in FIG. 3), the photo-products were denatured and separated using denaturing polyacrylamide gel electrophoresis (PAGE). […]

TO-ZF: 29 amino acid single zinc finger from residues 438-465 of glucocorticoid receptor, thiazole orange coupled to a lysine ε-amine
region protected from radical hydroxyl cleavage [1]: protects a four base pair region (TTCT) within the native GRE binding sequence | preferential site of photocleavage (GRE2 dsDNA): Preferential cleavage is observed at the 5′-G of the GG sequence
